Laboratory results reported in article PMC3640428 (Journal of the American Chemical Society, 2013).

Molecular target: T1, T. thermophilus GluRS (glutamyl-tRNA synthetase) (Thermus thermophilus, UniProt P27000)
T1 sequence (P27000 1-468): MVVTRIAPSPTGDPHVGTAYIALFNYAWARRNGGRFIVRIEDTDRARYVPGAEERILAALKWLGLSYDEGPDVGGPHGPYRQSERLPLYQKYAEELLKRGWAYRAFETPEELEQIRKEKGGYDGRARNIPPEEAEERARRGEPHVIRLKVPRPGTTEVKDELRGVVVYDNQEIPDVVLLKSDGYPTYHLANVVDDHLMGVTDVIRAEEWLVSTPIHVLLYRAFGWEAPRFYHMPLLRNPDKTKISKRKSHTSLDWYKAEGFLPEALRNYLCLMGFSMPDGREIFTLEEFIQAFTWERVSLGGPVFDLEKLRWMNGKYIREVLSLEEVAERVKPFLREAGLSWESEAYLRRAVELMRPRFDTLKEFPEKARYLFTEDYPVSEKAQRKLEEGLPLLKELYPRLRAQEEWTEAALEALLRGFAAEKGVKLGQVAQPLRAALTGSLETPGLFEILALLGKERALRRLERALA
Assay: intrinsic tryptophan fluorescence titration
Assay type: binding

Kd: 50 ± 12 µM
SMILES: Nc1ncnc2c1ncn2[C@@H]1O[C@H](COP(=O)(O)OP(=O)(O)OP(=O)(O)O)[C@@H](O)[C@H]1O [ATP]
